Data published in patent publication US20250288572A1, “COMPOSITIONS AND METHODS FOR TREATING PULMONARY VASCULAR DISEASE” (UNIVERSITY OF PITTSBURGH-OF THE COMMONWEALTH SYSTEM OF …, priority 2022, published 2025).
Entries after “also recorded” stand apart in the source; their conditions may differ.

Tests used:
[1] = system: glutathione S-transferase (GST); experiment: Measurement of GST activity in PASMCs; assay type: cell-based, human; details: IL-6/sIL-6R + hypoxia, BRD2889 1 uM
Experimental: (§1) BRD2889 (1 uM) vs. vehicle control were added, as indicated, and placed into a hypoxia chamber for 24 h. The hypoxia chamber (modular incubator chamber) was obtained from Billups-Rothenberg Inc. (Del Mar, Cali) and placed in regulated CO2 incubator at 37° C.

[2] = system: PASMCs; experiment: BrdU proliferation in PASMCs; assay type: cell-based, human; details: IL-6/sIL-6R + hypoxia
Experimental: as §1
BrdU growth assay: Cell proliferation was assayed relative to day 0 using a BrdU Cell Proliferation Assay Kit (#6813, Cell Signaling) according to the manufacturer's protocol after incubation for 2 h with BrdU.

[3] = system: monocrotaline-exposed pulmonary arterial hypertension rats; experiment: Monocrotaline (MCT) pulmonary arterial hypertension rat model, dosing Days 12-26
Experimental: (§2) Measurement of GST activity: The GST activity from lung tissue and PAECs was assayed using GST assay kit (Cayman, MI, USA) per the manufacturer's instructions.

[4] = system: SU5416-hypoxic pulmonary arterial hypertension rats; experiment: SU5416-hypoxia pulmonary arterial hypertension rat model, disease-reversal dosing; assay type: in vivo, Sprague-Dawley rats
Experimental: Briefly, 10 week old male Sprague-Dawley rats were injected i.p. with 20 mg/kg of SU5416 (Sigma), placed in normobaric hypoxia (10% 02) for 3 weeks and then transferred to normoxia for 2 weeks. During hypoxic exposure, chambers were opened twice a week for cleaning and replenishment of food and water. […] For BRD2889 vs. vehicle control dosing, i.p. injections every 5 days (5 mg/kg) were administered during the final two weeks of normoxia. Oxygen concentrations were continuously monitored with blood gas analyzers.
as §2
Rodent echocardiography: Echocardiography was performed using a 15-45M Hz transthoracic transducer and a Visual Sonics Vevo 3100 system (Fujifilm). Inhaled isoflurane anesthesia was used at 2% in 100% 02 during positioning and hair removal and then decreased to isoflurane 0.8% during imaging.

[5] = system: PASMCs; experiment: RT-qPCR gene expression in PASMCs; assay type: cell-based, human; details: hypoxia, BRD2889 5 uM
Text: Cell culture: Primary human pulmonary artery endothelial cells (PAECs) and human pulmonary artery smooth muscle cells (PASMCs) were purchased from Lonza (302-05A, CC-2581). Of note, the same two male donors were the source of all PAECs in the experiments shown. Two additional male donors were the source for all PASMCs in the experiments shown. Cells from these and any donors were characterized by flow cytometry for consistent expression of cell surface markers and by RNA (RT-qPCR) analysis of endothelial and smooth muscle gene expression. PAECs were cultured in EGM-2 media (CC-3121) along with supplements (CC-4133), and PASMCs were cultured in SmGM-2 culture media (Lonza, CC-3182) at 5% CO2 in a humidified incubator.
RT-qPCR analysis: Cells were lysis in 1 ml of QiaZol reagent (Qiagen). Total RNA content was extracted using the RNeasy kit (Qiagen), according to the manufacturer's instructions. Total RNA concentration was determined using a BioTek Synergy multimode plate reader. Messenger RNAs were reverse transcribed to generate cDNA using the Multiscript RT kit (Thermo Fisher Scientific). cDNA for specific gene targets was amplified and quantified via fluorescently-labeled Taqman primer sets and Taqman fast advanced master mix (Thermo Fisher Scientific) using an Applied Biosystems QuantStudio 6 Flex Real-Time PCR System.

[6] = I-BET762 30 mg/kg daily i.p. or BRD2889 5 mg/kg i.p. every 5 days, Days 12-26
[7] = SU5416-hypoxia rats, vs vehicle control
[8] = SU5416-hypoxia rats, I-BET762 30 mg/kg daily i.p. or BRD2889 5 mg/kg i.p. every 5 days, final 2 weeks

COc1ccc(C#CC2CCCN(C(=O)/C=C/c3cc(OC)c(OC)c(OC)c3)C2=O)cc1 (stereo not drawn) [BRD2889, (E)-3-((4-methoxyphenyl)ethynyl)-1-(3-(3,4,5-trimethoxyphenyl)acryloyl)piperidin-2-one]
GST activity [1]: failed to rescue ISCU or alter GST activity; also recorded: did not affect
proliferation [2]: did not affect
endothelial ISCU (immunofluorescence) ([3]; BRD2889 5 mg/kg i.p. every 5 days): increased
lung GST activity ([3]; BRD2889 5 mg/kg i.p. every 5 days, 5 mg/kg): reduced; also recorded: decreased
transcript levels of injury markers of liver (Got, Gpt1), kidney (Cst3, Lcn2), intestines (Ldha), tissue toxicity ([3]; BRD2889 vs VC, RT-qPCR): no indication of overt tissue toxicities
Fulton index (RV/LV+S) [3, 6]: reducing; also recorded: reduced
arteriolar muscularization (α-SMA) [3, 6]: reducing; also recorded: reduced
cleaved caspase-3 (CC-3), endothelial apoptosis [3, 6]: reducing; also recorded: decreased
right ventricular systolic pressure (RVSP) [3, 6]: reducing; also recorded: reduced
aortic blood pressure (mean arterial pressure, MAP) ([3]; vs vehicle control): without significant alterations
heart rate ([3]; vs vehicle control): without significant alterations
aortic blood pressure (mean arterial pressure, MAP) [4, 7]: without significant alterations
heart rate [4, 7]: without significant alterations
left ventricular function (LVPW thickness, LVEF, LVFS; echocardiography) [4, 7]: no alteration of left ventricular function; also recorded: did not exhibit altered left ventricular function
endothelial ISCU (immunofluorescence) ([4]; SU5416-hypoxia rats, BRD2889 5 mg/kg i.p. every 5 days): increased
lung GST activity ([4]; SU5416-hypoxia rats, BRD2889 5 mg/kg i.p. every 5 days, 5 mg/kg): reduced; also recorded: decreased
transcript levels of injury markers of liver (Got, Gpt1) and kidney (Cst3, Lcn2), tissue toxicity ([4]; SU5416-hypoxia rats, BRD2889 vs VC, RT-qPCR): no indication of overt tissue toxicities
Fulton index (RV/LV+S) [4, 8]: reducing; also recorded: reduced
arteriolar muscularization (α-SMA) [4, 8]: reducing; also recorded: reduced
cleaved caspase-3 (CC-3), endothelial apoptosis [4, 8]: reducing; also recorded: decreased
right ventricular systolic pressure (RVSP) [4, 8]: reducing; also recorded: reduced
ascites ([4]; three SU5416-hypoxic rats treated with drug): accumulation of mild ascites
ISCU transcript [5]: unaffected by BRD2889
mTOR transcript [5]: no change in mTOR
